# Legend:
# [1] = target: SurA (Escherichia coli, UniProt P0ABZ6); assay: Luciferase-based SurA activity assay (primary assay, in-house); assay type: biochemical, E. coli; parameters: key to primary assay SurA: SurA inhibition = +; no SurA inhibition = 0; conditions: for primary assay SurA: shelf derivatives evaluation
# Text: The biological function of SurA is to bind and to keep outer membrane proteins that have reached the periplasm in an unfolded but folding-competent state. The inventors' assay is based on this interaction and uses firefly Luciferase (fLuc) as a non-native substrate. […] This is exploited in the assay (FIG. 3). The loss of tertiary structure of fLuc leads to the exposure of binding sites for SurA. It is known that SurA binds selectively to a special group of substrates. These substrates have in common the specific patterns of hydrophobic amino acids that are highly enriched in the beta strands of integral outer membrane proteins. These motifs are present in OMPs of all Gram-negative bacteria and in fLuc as well. Upon mild heat treatment of fLuc and its subsequent partial unfolding, fLuc is accepted as a substrate by SurA. Of note, these intermediates served as reporter substrates to determine the activity of a […] folding chaperone. […] This interaction remains stable upon temperature reduction. Next, the temperature of the assay is reduced to room temperature and luciferase activity is subsequently measured by addition of Luciferin and ATP. In conditions without SurA, fLuc will refold into its active conformation resulting in a luminescence signal.
# In short, the Luciferase based SurA activity assay was performed in SurA Activity Assay Buffer (40 mM HEPES pH 7.4, 20 mM MgSO4, 0.5 g/I BSA). SurA aliquots were thawn at RT, activated by mild heat treatment and cooled down to RT for 10 min. […] Solution A containing 10 mM ATP as well as 0.3 mM Luciferin (Promega Beetle Luciferin, Potassium Salt) in water was prepared. Luciferase working solution was prepared by diluting 1 ml Luciferase working stock (100 nM) with 9 ml assay buffer. 33 μl of the protein solution were added to every 2nd row of a well of a 384-well PS, white, flat bottom plate. […] Subsequently, 2 μl of compound in DMSO were added in quadruplicates (4 wells each of protein solution and buffer controls). These compound solutions could contain either various compounds or different dilutions of the same compound allowing screening inhibitor activity in a dose dependent manner. After compound addition, plates were incubated 15 min at RT. After this incubation, 5 μl of Luciferase working solution were added to each well. Next, the plates were incubated 25 min at 38° C. to partially unfold the Luciferase. Subsequently, the assay plate was cooled for 5 min at 4° C. followed by 10 min incubation at RT prior to luminescence measurement. Luminescence was measured in a TECAN infinite M200 pro plate reader for each well individually after injection of 10 μl Solution A.
# [2] = tested on: E. coli ATCC 25922; assay: Sensitizer MIC assay (vancomycin); assay type: cell-based; conditions: compound concentration of 100 μM
# Experimental: To test for the sensitizer properties of the compounds, the inventors then performed a sensitizer MIC assay. To this end, E. coli BW25113, E. coli JW2496-3, and E. coli ATCC 25922 inocula were prepared as described above. Each well of a 96-well plate was prefilled with a fixed compound concentration of 100 μM and a dilution series of Vancomycin ranging from […]. A sensitizing effect was defined as reduction of the MIC value of Vancomycin of the respective test strain.
# [3] = target: luciferase (Photinus pyralis, UniProt P08659); assay: Luciferase interference deselection assay (D1); assay type: biochemical; conditions: DRC format
# luciferase, sequence (P08659 whole entry): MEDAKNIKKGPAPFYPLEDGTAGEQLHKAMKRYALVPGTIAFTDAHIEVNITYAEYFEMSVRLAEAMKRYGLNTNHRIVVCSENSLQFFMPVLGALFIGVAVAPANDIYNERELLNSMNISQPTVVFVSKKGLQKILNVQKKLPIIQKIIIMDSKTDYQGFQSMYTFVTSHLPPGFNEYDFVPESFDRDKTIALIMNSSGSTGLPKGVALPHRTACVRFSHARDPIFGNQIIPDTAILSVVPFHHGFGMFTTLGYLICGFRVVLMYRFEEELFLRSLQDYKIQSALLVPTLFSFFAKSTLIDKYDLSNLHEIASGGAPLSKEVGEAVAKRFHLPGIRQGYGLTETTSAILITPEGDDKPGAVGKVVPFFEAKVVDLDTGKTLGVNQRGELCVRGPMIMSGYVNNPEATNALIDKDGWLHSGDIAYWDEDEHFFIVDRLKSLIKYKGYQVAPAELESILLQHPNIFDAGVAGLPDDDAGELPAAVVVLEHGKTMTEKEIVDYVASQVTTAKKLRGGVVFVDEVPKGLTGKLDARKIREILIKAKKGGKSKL
# Text: Starting with approximately 400,000 compounds, a set of 3991 compounds was left for testing in dose response experiments. Due to acquisition of a lower assay window for part of the data obtained during the screening campaign of ELFSC17_02, the data-set was split into P1 and P2 for analysis in ActivityBase. For P1 the initially set criterion of Z-score ≥4 (˜4%) was used for selection of actives and for P2 this selection criterion was adjusted to effect ≥40% (Z-score ˜15). […] In order to reduce this total number of 4205 compounds to a maximum of 4000 compounds allowed to be ordered in serial dilutions for dose response experiments (i.e. 1% of 400,000), the criterion for P1 was changed to Z-score >4.3 gaining 3344 compounds. […] The confirmed actives of ELF program ELFSC17-02 were tested as serial dilutions in the primary assay and deselection assay to generate dose response curves (DRCs). The serial dilutions consisted of 7 equidistant concentration steps (20 μM to 27.4 nM) and were tested in the primary and in the deselection assay in duplo (n=2) in 1536-well format. […] For the luciferase interference deselection assay in DRC-format, luciferase was left out in the Max effect wells, mimicking a 100% effect situation and resulting in a decreased signal. Compounds showing a signal decrease larger than 5 times the standard deviation (Z-score >5) were identified as luciferase […]. […] The ActivityBase application (IDBS) was used to analyze the data and to calculate quality parameters like Z-prime and Signal to Background ratio (S/B). For all compounds the % effect was calculated for all seven concentrations. ActivityBase was also used to calculate the pEC50 and Hill Slope. […] For compounds where no curve was fitted but reached >50% effect at 20 μM the Fit_Max was locked at 100% effect. For compounds where no curve was fitted but reached 100% effect at 20 μM and descended to <50% at 27 nM the Fit_Min was locked at 0%. […] Based on the results of C2 and D1 a list of 383 compounds was created as the preliminary hits, which were evaluated with MST (01). […]
# SurA, sequence (P0ABZ6 21-428): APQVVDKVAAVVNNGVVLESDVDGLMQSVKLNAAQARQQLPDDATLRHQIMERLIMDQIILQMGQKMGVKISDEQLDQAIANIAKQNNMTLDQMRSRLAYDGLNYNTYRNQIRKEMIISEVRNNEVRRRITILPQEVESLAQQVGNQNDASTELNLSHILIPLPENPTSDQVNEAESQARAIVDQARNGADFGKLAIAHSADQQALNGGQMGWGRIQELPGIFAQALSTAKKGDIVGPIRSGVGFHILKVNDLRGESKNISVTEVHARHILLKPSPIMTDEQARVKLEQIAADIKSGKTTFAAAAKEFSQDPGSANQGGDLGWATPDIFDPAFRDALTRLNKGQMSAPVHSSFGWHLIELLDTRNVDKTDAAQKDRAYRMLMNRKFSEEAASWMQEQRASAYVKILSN
structure (smiles),measurement,setting,value
CN(C)c1ccc(-c2nc3cc(NC(=O)Cn4cc5ccccc5n4)ccc3[nH]2)cc1 [QHL-24],primary assay SurA,[1],+
same,MIC (reduction of vancomycin MIC),[2],yes (reduction of the MIC for vancomycin of the E. coli ATCC 25922 strain below 256 mg/l at a compound concentration of 100 μM (yes/no))
same,Deselection (D1) pIC50,[3],4.42
"NC(=O)c1nc(Cc2ccc(OCC(=O)O)cc2)[nH]c1NC(=O)c1ccc(-c2ccccc2)cc1 [Compound 2a, 2-(4-((5-([1,1′-biphenyl]-4-carboxamido)-4-carbamoyl-1H-imidazol-2-yl)methyl)phenoxy)acetic acid]",Primary Assay ICmax,"[1]; QHL-10 derivatives, dose response up to 125 μM, n/d: no signal detected",4 µM
same,Primary Assay Amplitude,"[1]; amplitude of signal, n/d: no signal detected",high
same,primary assay SurA,[1],+
same,MIC (reduction of vancomycin MIC),[2],yes (reduction of the MIC for vancomycin of the E. coli ATCC 25922 strain below 256 mg/l at a compound concentration of 100 μM (yes/no))
same,Deselection (D1) pIC50,[3]; listed as QHL-10,5.16
same,IC50,[3]; read-out: Deselection (D1) pIC50 (converted),6.92 µM
